Source: PubChem BioAssay (NCI)
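How tested: cells in 96-well plates exposed to compound for 48 hours at five concentrations. TGI marks complete inhibition of growth.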

Tests used:
Test in all cases: NCI anticancer screen, dose series, 48 h
CCRF-CEM leukemia = tested on: CCRF-CEM leukemia
UO-31 renal = tested on: UO-31 renal
U251 CNS = tested on: U251 CNS
M19-MEL melanoma = tested on: M19-MEL melanoma
SF-268 CNS = tested on: SF-268 CNS
SK-MEL-28 melanoma = tested on: SK-MEL-28 melanoma
CAKI-1 renal = tested on: CAKI-1 renal
ACHN renal = tested on: ACHN renal
UACC-257 melanoma = tested on: UACC-257 melanoma
EKVX NSCLC = tested on: EKVX NSCLC
KM20L2 colon = tested on: KM20L2 colon
TK-10 renal = tested on: TK-10 renal
HCT-116 colon = tested on: HCT-116 colon
MALME-3M melanoma = tested on: MALME-3M melanoma
DLD-1 colon = tested on: DLD-1 colon
SF-539 CNS = tested on: SF-539 CNS
HOP-92 NSCLC = tested on: HOP-92 NSCLC
LXFL 529 NSCLC = tested on: LXFL 529 NSCLC
OVCAR-4 ovarian = tested on: OVCAR-4 ovarian
K-562 leukemia = tested on: K-562 leukemia
A549 NSCLC = tested on: A549 NSCLC
A498 renal = tested on: A498 renal
SF-295 CNS = tested on: SF-295 CNS
NCI-H23 lung = tested on: NCI-H23 lung
HCC-2998 colon = tested on: HCC-2998 colon
SNB-19 CNS = tested on: SNB-19 CNS
NCI-H522 lung = tested on: NCI-H522 lung
OVCAR-3 ovarian = tested on: OVCAR-3 ovarian
OVCAR-5 ovarian = tested on: OVCAR-5 ovarian
RXF 393 renal = tested on: RXF 393 renal
786-0 renal = tested on: 786-0 renal
SNB-75 CNS = tested on: SNB-75 CNS
M14 melanoma = tested on: M14 melanoma
HT29 colon = tested on: HT29 colon
KM12 colon = tested on: KM12 colon
NCI-H460 lung = tested on: NCI-H460 lung
SK-MEL-2 melanoma = tested on: SK-MEL-2 melanoma
SK-OV-3 ovarian = tested on: SK-OV-3 ovarian
HOP-62 NSCLC = tested on: HOP-62 NSCLC

**Q.** Which TGI (CCRF-CEM leukemia) does the source give for `CC1OC(OC2CCCc3c(O)c4c(c(O)c32)C(=O)c2ccccc2C4=O)CC(N)C1O` (centres undefined) here?
**A.** Its TGI is 2.64 µM.

**Q.** What about the TGI (UO-31 renal) of the same compound?
**A.** Its TGI is 3.11 µM.

**Q.** What about the TGI (U251 CNS) of the same compound?
**A.** Its TGI is 3.44 µM.

**Q.** What about the TGI (M19-MEL melanoma) of the same compound?
**A.** Its TGI is 3.24 µM.

**Q.** What about the TGI (SF-268 CNS) of the same compound?
**A.** Its TGI is 3.29 µM.

**Q.** And the TGI (SK-MEL-28 melanoma)?
**A.** Its TGI is 3.32 µM.

**Q.** And the TGI (CAKI-1 renal)?
**A.** Its TGI is 2.91 µM.

**Q.** And the TGI (ACHN renal)?
**A.** Its TGI is 3.35 µM.

**Q.** What about the TGI (UACC-257 melanoma) of the same compound?
**A.** Its TGI is 3 µM.

**Q.** What about the TGI (EKVX NSCLC) of the same compound?
**A.** Its TGI is 3.27 µM.

**Q.** And the TGI (KM20L2 colon)?
**A.** The TGI was 3.84 µM.

**Q.** And the TGI (TK-10 renal)?
**A.** The TGI was 3.02 µM.

**Q.** What about the TGI (HCT-116 colon) of the same compound?
**A.** Its TGI is 3.11 µM.

**Q.** What about the TGI (MALME-3M melanoma) of the same compound?
**A.** The TGI was 3.27 µM.

**Q.** And the TGI (DLD-1 colon)?
**A.** The TGI was 2.69 µM.

**Q.** What about the TGI (SF-539 CNS) of the same compound?
**A.** Its TGI is 3.01 µM.

**Q.** What about the TGI (HOP-92 NSCLC) of the same compound?
**A.** The TGI was 2.86 µM.

**Q.** And the TGI (LXFL 529 NSCLC)?
**A.** The TGI was 2.94 µM.

**Q.** What about the TGI (OVCAR-4 ovarian) of the same compound?
**A.** Its TGI is 3.2 µM.

**Q.** And the TGI (K-562 leukemia)?
**A.** Its TGI is 2.35 µM.

**Q.** What about the TGI (A549 NSCLC) of the same compound?
**A.** Its TGI is 3.37 µM.

**Q.** What about the TGI (A498 renal) of the same compound?
**A.** Its TGI is 3.23 µM.

**Q.** What about the TGI (SF-295 CNS) of the same compound?
**A.** Its TGI is 3.22 µM.

**Q.** And the TGI (NCI-H23 lung)?
**A.** Its TGI is 3.22 µM.

**Q.** What about the TGI (HCC-2998 colon) of the same compound?
**A.** Its TGI is 3.51 µM.

**Q.** What about the TGI (SNB-19 CNS) of the same compound?
**A.** The TGI was 3.04 µM.

**Q.** And the TGI (NCI-H522 lung)?
**A.** Its TGI is 3.06 µM.

**Q.** And the TGI (OVCAR-3 ovarian)?
**A.** The TGI was 2.62 µM.

**Q.** And the TGI (OVCAR-5 ovarian)?
**A.** The TGI was 3.44 µM.

**Q.** And the TGI (RXF 393 renal)?
**A.** Its TGI is 2.23 µM.

**Q.** What about the TGI (786-0 renal) of the same compound?
**A.** The TGI was 2.55 µM.

**Q.** What about the TGI (SNB-75 CNS) of the same compound?
**A.** The TGI was 2.66 µM.

**Q.** What about the TGI (M14 melanoma) of the same compound?
**A.** Its TGI is 3.21 µM.

**Q.** And the TGI (HT29 colon)?
**A.** Its TGI is 2.87 µM.

**Q.** And the TGI (KM12 colon)?
**A.** Its TGI is 2.98 µM.

**Q.** What about the TGI (NCI-H460 lung) of the same compound?
**A.** Its TGI is 2.8 µM.

**Q.** And the TGI (SK-MEL-2 melanoma)?
**A.** Its TGI is 3.21 µM.

**Q.** What about the TGI (SK-OV-3 ovarian) of the same compound?
**A.** Its TGI is 2.42 µM.

**Q.** What about the TGI (HOP-62 NSCLC) of the same compound?
**A.** The TGI was 2.94 µM.
